Measurements reported in PubChem BioAssay (NCI).
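Five compound concentrations were applied to cells in 96-well plates for 48 hours; endpoints were derived by simple linear interpolation of the resulting dose-response curve. Here, GI50 denotes the concentration required for 50% inhibition of growth. TGI: concentration producing complete growth inhibition.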

Tests used:
Assay in all cases: NCI tumour cell line growth inhibition, 48 h
SW-620 colon = test system: SW-620 colon
KM12 colon = test system: KM12 colon
OVCAR-5 ovarian = test system: OVCAR-5 ovarian
MCF7 breast = test system: MCF7 breast
SR leukemia = test system: SR leukemia
CAKI-1 renal = test system: CAKI-1 renal
PC-3 prostate = test system: PC-3 prostate
SNB-75 CNS = test system: SNB-75 CNS
HCT-15 colon = test system: HCT-15 colon
HCT-116 colon = test system: HCT-116 colon

Nc1ccc(-c2nc3ccccc3[nH]2)c(O)c1
GI50 (SW-620 colon): 29.1 µM
TGI (SW-620 colon): > 100 µM
GI50 (KM12 colon): 17.9 µM
TGI (KM12 colon): 57.4 µM
GI50 (OVCAR-5 ovarian): 36.4 µM
TGI (OVCAR-5 ovarian): > 100 µM
GI50 (MCF7 breast): 30.3 µM
TGI (MCF7 breast): > 100 µM
GI50 (SR leukemia): 26.2 µM
TGI (SR leukemia): > 100 µM
GI50 (CAKI-1 renal): 27.1 µM
TGI (CAKI-1 renal): 58.1 µM
GI50 (PC-3 prostate): 23.9 µM
TGI (PC-3 prostate): > 100 µM
GI50 (SNB-75 CNS): 87.2 µM
TGI (SNB-75 CNS): > 100 µM
GI50 (HCT-15 colon): > 100 µM
TGI (HCT-15 colon): > 100 µM
GI50 (HCT-116 colon): 16.3 µM
TGI (HCT-116 colon): 40.7 µM

CCN(CC)CCOc1ccc(Nc2ncc3cc(-c4c(Cl)cccc4Cl)c(=O)n(CCOC)c3n2)cc1
GI50 (SW-620 colon): 1.2 µM
TGI (SW-620 colon): 5.86 µM
GI50 (KM12 colon): 0.655 µM
TGI (KM12 colon): 7.64 µM
GI50 (OVCAR-5 ovarian): 0.137 µM
TGI (OVCAR-5 ovarian): 7.09 µM
GI50 (MCF7 breast): 1.57 µM
TGI (MCF7 breast): 8.4 µM
GI50 (SR leukemia): 0.459 µM
TGI (SR leukemia): 2.15 µM
GI50 (CAKI-1 renal): 0.0149 µM
TGI (CAKI-1 renal): 0.174 µM
GI50 (PC-3 prostate): 3.49 µM
TGI (PC-3 prostate): 18.6 µM
GI50 (SNB-75 CNS): 0.00601 µM
TGI (SNB-75 CNS): 0.0454 µM
GI50 (HCT-15 colon): 0.128 µM
TGI (HCT-15 colon): 6.1 µM
GI50 (HCT-116 colon): 0.159 µM
TGI (HCT-116 colon): 1.16 µM

CCc1ccc(-c2ccc(=O)n(-c3ccc(S(N)(=O)=O)cc3)n2)cc1
GI50 (SW-620 colon): 0.56 µM
TGI (SW-620 colon): > 100 µM
GI50 (KM12 colon): 0.68 µM
TGI (KM12 colon): > 100 µM
GI50 (OVCAR-5 ovarian): > 64.4 µM
TGI (OVCAR-5 ovarian): > 100 µM
GI50 (MCF7 breast): 1.46 µM
TGI (MCF7 breast): > 43.5 µM
GI50 (SR leukemia): 0.0659 µM
TGI (SR leukemia): 0.497 µM
GI50 (CAKI-1 renal): 2.6 µM
TGI (CAKI-1 renal): > 100 µM
GI50 (PC-3 prostate): 1.35 µM
TGI (PC-3 prostate): > 100 µM
GI50 (SNB-75 CNS): 2.96 µM
TGI (SNB-75 CNS): 28 µM
GI50 (HCT-15 colon): 0.746 µM
TGI (HCT-15 colon): > 100 µM
GI50 (HCT-116 colon): 0.951 µM
TGI (HCT-116 colon): > 43.7 µM

COc1ccc(Nc2ccnc(NCCNc3ccnc4cc(Cl)ccc34)n2)cc1
GI50 (SW-620 colon): 1.6 µM
TGI (SW-620 colon): 10.2 µM
GI50 (KM12 colon): 3.72 µM
TGI (KM12 colon): 15.2 µM
GI50 (OVCAR-5 ovarian): 1.29 µM
TGI (OVCAR-5 ovarian): 7.13 µM
GI50 (MCF7 breast): 1.53 µM
TGI (MCF7 breast): 5.2 µM
GI50 (SR leukemia): 2.12 µM
TGI (SR leukemia): 7.51 µM
GI50 (CAKI-1 renal): 1.73 µM
TGI (CAKI-1 renal): 4.57 µM
GI50 (PC-3 prostate): 1.85 µM
TGI (PC-3 prostate): 16 µM
GI50 (SNB-75 CNS): 1.17 µM
TGI (SNB-75 CNS): 2.52 µM
GI50 (HCT-15 colon): 1.23 µM
TGI (HCT-15 colon): 4.03 µM
GI50 (HCT-116 colon): 0.533 µM
TGI (HCT-116 colon): 3.78 µM

O=Nc1c(-c2cccc([N+](=O)[O-])c2)nc2cnccn12
TGI (SW-620 colon): 35.7 µM
TGI (KM12 colon): 95.4 µM
TGI (OVCAR-5 ovarian): 44 µM
TGI (MCF7 breast): > 100 µM
TGI (SR leukemia): 18.4 µM
TGI (CAKI-1 renal): 43 µM
TGI (PC-3 prostate): 62.6 µM
TGI (SNB-75 CNS): > 100 µM
TGI (HCT-15 colon): 30.7 µM
TGI (HCT-116 colon): 18.8 µM

CCOC(=O)c1cc2c(n1Cc1cc(OC)cc(OC)c1)-c1oncc1CCC2
GI50 (SW-620 colon): 0.0784 µM
TGI (SW-620 colon): > 100 µM
GI50 (KM12 colon): 0.0472 µM
TGI (KM12 colon): > 20.5 µM
GI50 (OVCAR-5 ovarian): 0.294 µM
TGI (OVCAR-5 ovarian): > 100 µM
GI50 (MCF7 breast): 0.0401 µM
TGI (MCF7 breast): > 100 µM
GI50 (SR leukemia): 0.0382 µM
TGI (SR leukemia): > 100 µM
GI50 (CAKI-1 renal): 0.101 µM
TGI (CAKI-1 renal): > 100 µM
GI50 (PC-3 prostate): 0.0644 µM
TGI (PC-3 prostate): > 100 µM
GI50 (SNB-75 CNS): 0.0276 µM
TGI (SNB-75 CNS): > 100 µM
GI50 (HCT-15 colon): 0.0678 µM
TGI (HCT-15 colon): > 100 µM
GI50 (HCT-116 colon): 0.0588 µM
TGI (HCT-116 colon): > 100 µM

CCON=C1C(C)(C)C(C)(C)C(C)(C)C1(C)C
TGI (SW-620 colon): > 100 µM
TGI (KM12 colon): > 100 µM
TGI (OVCAR-5 ovarian): > 100 µM
TGI (MCF7 breast): > 100 µM
TGI (SR leukemia): > 100 µM
TGI (CAKI-1 renal): > 100 µM
TGI (PC-3 prostate): > 100 µM
TGI (SNB-75 CNS): > 100 µM
TGI (HCT-15 colon): > 100 µM
TGI (HCT-116 colon): > 100 µM

Nc1c(C(=O)c2cccc(-c3ccc[n+]([O-])c3)c2)cnn1-c1ccc(F)cc1F
GI50 (SW-620 colon): > 25 µM
TGI (SW-620 colon): > 25 µM
GI50 (KM12 colon): > 25 µM
TGI (KM12 colon): > 25 µM
GI50 (OVCAR-5 ovarian): > 25 µM
TGI (OVCAR-5 ovarian): > 25 µM
GI50 (MCF7 breast): > 25 µM
TGI (MCF7 breast): > 25 µM
GI50 (SR leukemia): 17.8 µM
TGI (SR leukemia): > 25 µM
GI50 (CAKI-1 renal): > 25 µM
TGI (CAKI-1 renal): > 25 µM
GI50 (PC-3 prostate): > 25 µM
TGI (PC-3 prostate): > 25 µM
GI50 (SNB-75 CNS): > 25 µM
TGI (SNB-75 CNS): > 25 µM
GI50 (HCT-15 colon): > 25 µM
TGI (HCT-15 colon): > 25 µM
GI50 (HCT-116 colon): > 25 µM
TGI (HCT-116 colon): > 25 µM

O=c1[nH]cnc2c1nnn2C1OC(CO)C(O)C1O (stereo not given)
GI50 (SW-620 colon): 1.69 µM
TGI (SW-620 colon): > 100 µM
GI50 (KM12 colon): 3.89 µM
TGI (KM12 colon): > 100 µM
GI50 (OVCAR-5 ovarian): 26.6 µM
TGI (OVCAR-5 ovarian): > 100 µM
GI50 (MCF7 breast): 1.41 µM
TGI (MCF7 breast): > 78.8 µM
GI50 (SR leukemia): 3.37 µM
TGI (SR leukemia): > 100 µM
GI50 (CAKI-1 renal): 0.735 µM
TGI (CAKI-1 renal): > 45.1 µM
GI50 (PC-3 prostate): 2.43 µM
TGI (PC-3 prostate): > 100 µM
GI50 (SNB-75 CNS): 2.43 µM
TGI (SNB-75 CNS): > 100 µM
GI50 (HCT-15 colon): 1.21 µM
TGI (HCT-15 colon): > 100 µM
GI50 (HCT-116 colon): 3.88 µM
TGI (HCT-116 colon): > 100 µM

Cn1c(=O)c(Oc2cccc(F)c2)cc2cnc(NC3CCOCC3)nc21
GI50 (SW-620 colon): > 25 µM
TGI (SW-620 colon): > 25 µM
GI50 (KM12 colon): > 25 µM
TGI (KM12 colon): > 25 µM
GI50 (OVCAR-5 ovarian): > 25 µM
TGI (OVCAR-5 ovarian): > 25 µM
GI50 (MCF7 breast): > 25 µM
TGI (MCF7 breast): > 25 µM
GI50 (SR leukemia): > 25 µM
TGI (SR leukemia): > 25 µM
GI50 (CAKI-1 renal): > 22.4 µM
TGI (CAKI-1 renal): > 25 µM
GI50 (PC-3 prostate): > 25 µM
TGI (PC-3 prostate): > 25 µM
GI50 (SNB-75 CNS): > 6.38 µM
TGI (SNB-75 CNS): > 25 µM
GI50 (HCT-15 colon): > 25 µM
TGI (HCT-15 colon): > 25 µM
GI50 (HCT-116 colon): > 25 µM
TGI (HCT-116 colon): > 25 µM

COc1ccc(Nc2ncccc2/C=C/C(=O)c2cc(OC)c(OC)c(OC)c2)cc1
GI50 (SW-620 colon): 1.2 µM
TGI (SW-620 colon): 2.43 µM
GI50 (KM12 colon): 1.69 µM
TGI (KM12 colon): 3.22 µM
GI50 (OVCAR-5 ovarian): 1.97 µM
TGI (OVCAR-5 ovarian): 3.83 µM
GI50 (MCF7 breast): 0.695 µM
TGI (MCF7 breast): 2.09 µM
GI50 (SR leukemia): 0.464 µM
TGI (SR leukemia): 3.98 µM
GI50 (CAKI-1 renal): 1.52 µM
TGI (CAKI-1 renal): 3.88 µM
GI50 (PC-3 prostate): 2.82 µM
TGI (PC-3 prostate): 8.71 µM
GI50 (SNB-75 CNS): 1.15 µM
TGI (SNB-75 CNS): 2.37 µM
GI50 (HCT-15 colon): 1.66 µM
TGI (HCT-15 colon): 5.06 µM
GI50 (HCT-116 colon): 1.02 µM
TGI (HCT-116 colon): 2.28 µM
